In patent US20190010533A1, “METHODS FOR SCREENING AND SELECTING TARGET AGENTS FROM MOLECULAR DATABASES” (The Methodist Hospital System, priority 2017, published 2019):
Counter-ions that a name gives are not always drawn. Like-named read-outs stand apart in the source and are kept apart here.

Legend:
canonical pathways = test: RNA-seq canonical pathway analysis of 3D AD #A5 cultures treated with anti-Aβ drugs; assay type: cell-based, human; conditions: AD #A5 DMSO vs treated
Description: FIG. 7. […] Pearson correlations of global gene expression profile among 2D undifferentiated control ReN cells, 3D control (G2#B2on), AD #A5 (#A5, moderate Aβ42/40 ratio ˜0.2), AD #D4 (#D4, high Aβ42/40 ratio, ˜1.4), and AD #H10 (#H10, extra high Aβ42/40 ratio, ˜1.7). Units are log CPM. b. Volcano plots show −log10(FDR) vs log FC distribution for G2#B2 (control) vs AD #A5 (AD), AD #A5 DMSO vs AD #A5 BSI (BACE inhibitor, Ly2886721), and AD #A5 DMSO vs AD #A5 GSM (gamma secretase modulator, SGSM15606) transcriptomic signatures. […] Canonical pathway analysis between G2#B2 and AD #A5 (Ingenuity pathway analysis, Qiagen). d. Analysis of common canonical pathways. The pathway analysis among G2#B2 vs AD #A5, AD #A5 DMSO vs AD #A5 BSI, and AD #A5 DMSO vs AD #A5 GSM. Activation z-scores indicate that majority of decreased pathways in AD #A5 are restored by BSI and/or GSM treatments. e. […]
To examine the multiple single-clonal AD models, unbiased whole genome RNA-seq analyses were performed to compare gene expression profiles among the clonal AD models with different Aβ42/40 ratios, as compared to control 3D cultures and undifferentiated 2D control cells (FIG. 7a-d). […] Differential gene expression profile of 3D AD cultures were analyzed after treating anti-Aβ drugs (BACE1 inhibitor, Ly2886721; Gamma-secretase modulator (GSM), GSM15606) (FIG. 7b). […]

pTau [1] = test: primary high-content screening (HCS) for inhibition of pTau accumulation in neuron cells in 3D culture; assay type: cell-based
Description: This workflow to identify the mechanisms underlying those screening hits can be used to effectively discover more compounds that can generate similar phenotype. As a proof of concept, the transcriptomic profiles hosted by the Broad Institute'[…] warehouse^28-30 through the NIH LINCS program were used in the initial study.

primary neurons = test: time-lapse synaptogenesis assay (FM1-43 staining, KCl de-staining); assay type: cell-based
Protocol: FIG. 6. Time-lapse synaptogenesis assay identifies pre-synaptic hyperactivity caused by thiorphan's treatments.
A high content screening (HCS) is carried out on existing 3,000 known drugs and compounds to systematically characterize the effects of known drugs or bioactive compounds on the Parkinson's Disease (PD) induced pluripotent stem (iPS) cell model, with the aim to identify effective hits that can be validated in PD mouse models. […] Cells were stained with FM1-43 (FIG. 6A) and de-stained by KCl stimulation (FIG. 6B). Time-lapse imaging was carried out from the dye uptake until the synapses were completely de-stained. […] A similar assay is applied in iPS cells as well as neuron cell models for PD. In addition to using the prevalence of synaptogenesis as the main readout for the high content screening (HCS), the heterogeneous nature of stem cell differentiation is addressed by identifying and quantifying the prevalence of novel phenotypes other than stem cell and synaptogenesis based on morphological features. Such consideration of cell population heterogeneity brings deeper insight in the HCS and can help identify potential compounds that are causing specific type of differentiations benefiting cure of PD.

pTau [2] = test: cell-based validation in reformatted high content version of AD-in-a-dish model; conditions: 26 predicted compounds tested
Description: FIG. 2. Pilot SMART screen used 20 primary hits to identify 5 new compound hits that inhibit pTau (phospho-Tau or phosphorylated Tau).
Twenty-two of the 38 aforementioned screening hits had LINCS data covering the perturbation profiles for at least 4 cell lines. From these twenty-two hits, 2 were eliminated because no known drug candidates ranked high enough based on transcriptomic similarities to these two primary hits; and 3 others were removed upon inspection of the compound properties of the predictions they made, i.e., the predicted drugs may be toxic or unfit for systematic use. Thus, the 17 primary hits were used to initiate a pilot run using the SMART framework. The cMAP algorithm^7 was used to rank all compounds in the LINCSCloud, based on the similarity of transcriptomic profiles to each of the 17 primary hits. If any compound was determined by cMAP algorithm to have a similarity score larger than 90 to at least one of the primary hits, it was identified as a hit candidate. After filtering based on pharmacology features, 85 candidates predicted by 17 primary hits remained; 26 of these 85 compounds were purchased for validation after analysis for pharmacology and medical practice features.

p-tau (pSer396/Ser404) = test: quantitative immunofluorescence staining in 3D AD models; assay type: cell-based, human; conditions: 5 μM for 3 weeks
Description: (§1) FIG. 9. Validation of primary hit candidates. Primary hit candidates were confirmed using Western blot analysis (a) and quantitative immunofluorescence staining in 3D AD models with high Aβ42/40 ratios (#HReN and #A4H1) (b). PHF1 pSer396/Ser404 tau antibody was used to detect changes in phospho tau in 3D AD #HReN cells treated with DMSO vehicle, ebselen, or leflunomide.
(§2) In addition to MSD Mesoscale ELISA shown in FIG. 8, quantitative Western blot and immunofluorescence analysis were used to validate candidate drugs. […] Ebselen and leflunomide are compounds screened from original HCS screening of […] biologically active/FDA-approved drug library. […] Moreover, quantitative immunofluorescence staining was used to analyze p-tau changes after treating these compounds.

genes and pathways = test: whole genome RNAseq analysis after compound treatment versus control; assay type: cell-based
Description: FIG. 10A-10B. […] PPI information was extracted from STRING database version 10.5 with the cutoff for confidence score at 0.4.
Given ebselen and leflunomide in FIG. 9, an unbiased whole genome RNAseq analysis was used to obtain transcriptomic profiles after the treatment of each compound and compare them separately to control conditions. For both treatments, a subset of genes and pathways show significant change (|log FC|>1.5) in the same direction over control condition. […] These 22 genes have 102 PPI pairs among them, and there are 7 genes directly connected to APP (coding Aβ) or MAPT (coding Tau).
It's worth noting that the enrichment of immune and inflammatory related pathway changes is consistent with the characteristics of the 3D cell model, as this system contains astrocytes, which is one of the brain innate immune cells. […] Also, neuroinflammatory pathways are highly unregulated in high Abeta42/40 lines (D4 and H10) as compared to A5 (similar to GA2) (data not shown).

3D AD models = test: cellular viability and neurite networks in the immunofluorescence study; assay type: cell-based, human; conditions: 5 μM for 3 weeks
Description: as §2

[3] = system: insoluble p-tau species (pSer396/Ser404, pThr181); test: Western blot analysis in 3D AD models with high Aβ42/40 ratios; assay type: cell-based, human; conditions: various concentrations
Description: as §1, §2

In the case of COc1nc(-c2cc(C)c(NC(C)c3ccc(F)cc3)nn2)ccc1-n1cnc(C)c1 (stereo not shown) [SGSM15606], the “pathways decreased in AD #A5 after treatment (activation z-scores)” value (canonical pathways) was “restored”.
N=C(N)c1ccc(OCCCCCOc2ccc(C(=N)N)cc2)cc1 [pentamidine] was tested, and the “inhibition of pTau accumulation (primary screen hit status)” value (shortened to “inhibition of pTau accumulation”) (pTau [1]) was “top-3 hits”.
Nc1ccc(-c2nc3ccc(-c4nc5ccc(N)cc5[nH]4)cc3[nH]2)cc1 [Ro90-7501] was tested, and the “inhibition of pTau accumulation” value (pTau [1]) was “primary hits”.
For CC[N+](CC)(CC)CCOc1ccc(/C=C/c2ccccc2)cc1 [mg624], the “inhibition of pTau accumulation” value (pTau [1]) was “top-3 hits”.
In the case of O=C(O)CNC(=O)C(CS)Cc1ccccc1 (stereo not shown) [thiorphan], the “pre-synaptic activity (FM dye uptake, automatic image quantification)” value (primary neurons) was “causes pre-synaptic hyperactivity”.
In the case of Oc1c(Cl)cc(Cl)c2cccnc12 [chloroxine], the “inhibition of pTau in validation” value (pTau [2]) was “validated hits”.
For Cc1oncc1C(=O)Nc1ccc(C(F)(F)F)cc1 [leflunomide], the “p-tau (pSer396/Ser404) accumulation” value (p-tau (pSer396/Ser404)) was “robustly decreased”, the “pathways changed after treatment” value (genes and pathways; 5 of 6 pathways connected to 12 down-regulated genes) was “significantly down-regulated” and the “genes with significant change versus control” value (genes and pathways; |log FC|>1.5, shared by both treatments) was 15 down-regulated and 7 up-regulated genes. For the same compound, the “cellular viability and neurite networks” value (3D AD models) was “without affecting” and the “insoluble p-tau species (pSer396/Ser404, pThr181)” value [3] was “significantly decreased”.
In the case of ivermectin, the “inhibition of pTau accumulation” value (pTau [1]) was “top-3 hits” and the “inhibition of pTau accumulation” value (pTau [1]; listed as Ivermectin) was “most significant phenotype”.
In the case of C/C(=C\c1ccc(C(=O)O)cc1)c1ccc2c(c1)C(C)(C)CCC2(C)C [TTNPB], the “inhibition of pTau accumulation” value (pTau [1]) was “primary hit”.
With NC1=N[C@@]2(c3cc(NC(=O)c4ccc(F)cn4)ccc3F)COC[C@H]2CS1 [Ly2886721] the “pathways decreased in AD #A5 after treatment (activation z-scores)” value (canonical pathways) was “restored”.
In the case of C1CCC(C(CC2CCCCN2)C2CCCCC2)CC1 (stereo not shown) [Perhexiline, perhexiline maleate], the “inhibition of pTau in validation” value (pTau [2]) was “successful predictions”.
